From the SangsterLogP compilation

Experiments:
[1] = method code SF, from DOI: 10.1021/jm00063a015, PMID: 8388471

| SMILES | logP | logP [1] |
| --- | --- | --- |
| CN(Cc1ccccc1)C(=O)[C@H](Cc1ccccc1)NC(=O)[C@@H](Cc1cn(C(=O)OC(C)(C)C)c2ccccc12)NC(=O)CC1NC(=O)C2C3CCC(CC3)N2C1=O (stereo partly specified) | 5.33 | – |
| CN(Cc1ccccc1)C(=O)C(Cc1ccccc1)NC(=O)C(Cc1cn(C(=O)CCC(=O)O)c2ccccc12)NC(=O)CC1NC(=O)C2C3CCC(CC3)N2C1=O (stereo unspecified) | 3.15 | – |
| CN(Cc1ccccc1)C(=O)C(Cc1ccccc1)NC(=O)C(Cc1cn(C=O)c2ccccc12)NC(=O)CC1NC(=O)C2C3CCC(CC3)N2C1=O (stereo unspecified) | – | 3.47 |
| CN(Cc1ccccc1)C(=O)C(Cc1ccccc1)NC(=O)C(Cc1cn(C(=O)OCc2ccccc2)c2ccccc12)NC(=O)CC1NC(=O)C2C3CCC(CC3)N2C1=O (stereo unspecified) | – | 5.66 |
| CN(Cc1ccccc1)C(=O)C(Cc1ccccc1)NC(=O)C(Cc1cn(C)c2ccccc12)NC(=O)CC1NC(=O)C2C3CCC(CC3)N2C1=O (stereo unspecified) | 3.85 | – |
| CN(Cc1ccccc1)C(=O)C(Cc1ccccc1)NC(=O)C(Cc1c[nH]c2ccccc12)NC(=O)CC1NC(=O)C2C3CCC(CC3)N2C1=O (stereo unspecified) | 3.18 | – |

Other lines, results leading:

| logP | logP [1] | SMILES |
| --- | --- | --- |
| 3.69 | – | CC(=O)n1cc(CC(NC(=O)CC2NC(=O)C3C4CCC(CC4)N3C2=O)C(=O)NC(Cc2ccccc2)C(=O)N(C)Cc2ccccc2)c2ccccc21 (stereo unspecified) |
| 2.95 | – | CN(Cc1ccccc1)C(=O)C(Cc1ccccc1)NC(=O)C(Cc1cn(C(=O)OCCCCCCN)c2ccccc12)NC(=O)CC1NC(=O)C2C3CCC(CC3)N2C1=O (stereo unspecified) |
| 2.48 | – | CN(Cc1ccccc1)C(=O)C(Cc1ccccc1)NC(=O)C(Cc1cn(C(=O)CCCCCCN)c2ccccc12)NC(=O)CC1NC(=O)C2C3CCC(CC3)N2C1=O (stereo unspecified) |
| 4.05 | – | COC(=O)n1cc(CC(NC(=O)CC2NC(=O)C3C4CCC(CC4)N3C2=O)C(=O)NC(Cc2ccccc2)C(=O)N(C)Cc2ccccc2)c2ccccc21 (stereo unspecified) |
| 7.29 | – | CCCCCCCC(=O)n1cc(C[C@@H](NC(=O)CC2NC(=O)C3C4CCC(CC4)N3C2=O)C(=O)N[C@@H](Cc2ccccc2)C(=O)N(C)Cc2ccccc2)c2ccccc21 (stereo partly specified) |
